Data from patent publication US5679828A (priority 1995, dated 1997).
pEC50: −log10 of the molar value.

Key:
[1] = tested on: HIV-induced membrane fusion; assay: Inhibition of HIV-induced membrane fusion / syncytia formation reported in the literature; type: cell-based; details: versus compounds 2-5 or 8-10; CEM4 here, H9 in the literature
[2] = tested on: HIV-1; details: Table 1 footnote h: data from reference 8; cited from earlier work
[3] = tested on: HIV-1 RT; details: Table 1 footnote h: data from reference 8; cited from earlier work
[4] = tested on: HIV-induced membrane fusion; details: cited from earlier work

Compound: C=C(C)[C@@H]1CC[C@]2(C(=O)NCCCCCCCC(=O)N[C@@H](CC(C)C)[C@@H](O)CC(=O)O)CC[C@]3(C)[C@H](CC[C@@H]4[C@@]5(C)CC[C@H](O)C(C)(C)[C@@H]5CC[C@]43C)[C@@H]12 [Compound 12]
- potency in inhibiting syncytia formation relative to compounds 2-5 or 8-10 [1]: approximately ten
- pEC50 [2]: 7.52
- T.I. [2]: > 90
- HIV-RT Assay IC50 [3]: No Inhibition
- Fusion Assay IC100 ([4]; Table 1 footnote h: data from reference 8): 3 µg/mL
- inhibit syncytia formation ([4]; reported in the literature, H9 cell line): 3 µg/mL
